According to article PMC10791743, “Selective CK1α degraders exert antiproliferative activity against a broad range of human cancer cell lines” (Nature Communications, 2024):
Several values for one entry are separate records, joined by “and”; a condition that tells them apart may be missing. Equal entries are not always repeated.

Key:
CRBN−/− MOLM-13 cells = experiment: Annexin-V staining for apoptosis, CRBN−/− MOLM-13; assay type: cell-based, human; settings: for Effect on viability of CRBN−/− cells (annexin-V): 1 μM; for Late apoptosis, flow cytometry / Early apoptosis, flow cytometry: CRBN-/-; for total apoptosis, flow cytometry: MOLM-13 CRBN-/-
Method: Wild type and CRBN^−/− MOLM-13 cells were grown in 12-well plates (TPP, Techno Plastic Products AG) with 500,000 cells per well in 2 ml total media volume. Cells were treated with 1 μl/ml DMSO or 1 μM compound in triplicate, and incubated for 24 or 72 h at 37 °C. To prepare samples, this buffer was used: 10 mM HEPES, 0.14 M NaCl, 2.5 mM CaCl2 pH 7.4, 2% v/v FBS in UltraPure water (Invitrogen). After incubation, samples were collected in 5-ml tubes for flow cytometry (Falcon). Single-stain controls consisted of ~150 μl of multiple samples combined. Wells were washed with 1 ml of buffer that was added to the corresponding sample tube. Cells were centrifuged at 500×g for 5 min at 4 °C to form a pellet. Supernatant was decanted and cells were washed again with 3 ml of buffer, then centrifuged. After decanting the supernatant, 3 μl of APC-conjugated anti-Annexin-V antibody (BioLegend) was added to each tube in the residual buffer left behind. Samples were mixed by vortex and incubated at room temperature in the dark for 20 min. Samples were then washed and centrifuged a final time, decanting the supernatant and blotting the tubes to remove residual buffer. 50 μl of buffer with DAPI was added to all appropriate samples and mixed, then analyzed by flow cytometry.
Supplementary Fig. 13: Gating for Annexin V flow cytometry analysis. Total cells were gated to remove cell debris, followed by single cell gating on the FSC-A/FSC-H diagonal. Within the single […]
Live cells are negative for both fluorescent markers, DAPI positive/APC negative cells are necrotic, APC positive/DAPI negative cells are still alive but in the early stages of apoptosis, and double positive cells are dead via apoptosis. Percentages of early and late apoptosis were plotted in supplementary figures 4 and 5.
(1 picture or pasted object on this page, not shown here)

CK1α = CK1α (Homo sapiens, UniProt P48729+Q96SW2); experiment: CK1α HiBiT live-cell kinetic degradation assay (HEK293 cells); assay type: cell-based; parameters: engineered by CRISPR/Cas9 to express endogenous CK1α (HEK293 cells) with a HiBiT tag; settings: for Dmax at 0.111 µM: CK1, 0.111 uM; for Dmax at 0.111 µM / Dmax at 0.333 µM / Dmax at 1 µM / Dmax at 3 µM / Dmax at 10 µM: read-out: CK1a Percent Maximum Degradation; for Dmax at 0.333 µM: CK1, 0.333 uM; for Dmax at 1 µM: CK1, 1 uM; for Dmax at 3 µM: CK1, 3 uM; for Dmax at 10 µM: CK1, 10 uM; for DC50: HEK293, at 4 h
Sequence of CK1α (P48729 whole entry): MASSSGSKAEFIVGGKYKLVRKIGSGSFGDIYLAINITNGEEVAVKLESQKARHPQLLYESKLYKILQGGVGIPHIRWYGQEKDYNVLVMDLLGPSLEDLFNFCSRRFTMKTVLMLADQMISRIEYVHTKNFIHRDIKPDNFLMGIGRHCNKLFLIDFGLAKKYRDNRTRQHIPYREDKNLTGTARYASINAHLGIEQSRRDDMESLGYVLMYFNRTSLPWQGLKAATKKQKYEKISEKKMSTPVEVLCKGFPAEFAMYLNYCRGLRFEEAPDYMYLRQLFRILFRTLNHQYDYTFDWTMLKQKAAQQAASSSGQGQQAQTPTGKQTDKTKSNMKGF
Sequence of CK1α (Q96SW2 whole entry): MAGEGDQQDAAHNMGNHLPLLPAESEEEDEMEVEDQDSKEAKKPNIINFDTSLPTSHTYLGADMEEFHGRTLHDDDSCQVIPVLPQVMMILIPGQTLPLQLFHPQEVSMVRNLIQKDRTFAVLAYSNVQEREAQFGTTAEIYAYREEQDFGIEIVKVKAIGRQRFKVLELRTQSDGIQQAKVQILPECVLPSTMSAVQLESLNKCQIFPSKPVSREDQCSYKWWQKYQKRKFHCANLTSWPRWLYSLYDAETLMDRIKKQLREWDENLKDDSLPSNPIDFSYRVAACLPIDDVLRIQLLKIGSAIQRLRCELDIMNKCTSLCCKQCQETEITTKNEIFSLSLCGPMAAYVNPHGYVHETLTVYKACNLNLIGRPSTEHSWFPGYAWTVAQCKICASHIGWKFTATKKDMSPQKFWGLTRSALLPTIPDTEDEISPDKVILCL
Sequence of CK1α (Q16531 whole entry partner): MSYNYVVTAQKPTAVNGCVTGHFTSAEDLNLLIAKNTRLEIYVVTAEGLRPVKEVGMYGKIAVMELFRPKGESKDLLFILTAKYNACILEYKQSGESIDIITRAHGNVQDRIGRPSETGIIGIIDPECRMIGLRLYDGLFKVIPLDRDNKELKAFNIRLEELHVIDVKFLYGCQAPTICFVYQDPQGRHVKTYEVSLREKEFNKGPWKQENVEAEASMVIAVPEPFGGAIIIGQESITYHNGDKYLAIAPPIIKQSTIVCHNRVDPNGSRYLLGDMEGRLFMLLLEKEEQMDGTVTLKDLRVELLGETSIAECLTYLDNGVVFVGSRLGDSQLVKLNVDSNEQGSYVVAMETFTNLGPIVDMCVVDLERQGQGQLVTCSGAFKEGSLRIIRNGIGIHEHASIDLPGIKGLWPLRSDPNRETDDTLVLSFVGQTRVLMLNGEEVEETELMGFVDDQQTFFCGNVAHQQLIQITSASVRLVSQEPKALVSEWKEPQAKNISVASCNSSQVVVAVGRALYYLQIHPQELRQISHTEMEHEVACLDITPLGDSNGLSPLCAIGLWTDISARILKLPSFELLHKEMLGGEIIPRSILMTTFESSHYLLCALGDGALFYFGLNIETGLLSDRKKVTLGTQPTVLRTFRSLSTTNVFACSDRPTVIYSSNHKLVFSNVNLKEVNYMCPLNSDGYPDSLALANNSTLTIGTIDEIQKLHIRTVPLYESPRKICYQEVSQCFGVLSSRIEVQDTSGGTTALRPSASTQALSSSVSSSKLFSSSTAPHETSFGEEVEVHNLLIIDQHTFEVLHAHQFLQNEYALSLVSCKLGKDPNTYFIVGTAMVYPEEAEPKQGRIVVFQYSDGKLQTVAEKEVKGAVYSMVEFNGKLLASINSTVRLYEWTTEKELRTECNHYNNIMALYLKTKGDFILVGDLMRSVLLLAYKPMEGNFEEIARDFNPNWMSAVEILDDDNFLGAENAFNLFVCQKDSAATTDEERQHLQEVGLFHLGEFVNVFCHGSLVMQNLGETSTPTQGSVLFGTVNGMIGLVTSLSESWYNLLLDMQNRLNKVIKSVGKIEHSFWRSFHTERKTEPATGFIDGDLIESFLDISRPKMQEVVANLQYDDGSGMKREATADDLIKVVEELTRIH
From the text: To measure cellular protein levels, we used cell lines that have been engineered by CRISPR/Cas9 to express endogenous CK1α (HEK293 cells) or IKZF1 (Jurkat cells) with a HiBiT tag, which when coupled with LgBiT expression forms NanoBiT, a bioluminescent protein that can be used for kinetic studies of protein degradation. […] Cell viability was also monitored with CellTiter Glo 2.0 (Promega) at the completion of the experiment to ensure that loss of protein was not a consequence of a loss of cell viability.
IKZF1-HiBiT Jurkat LgBiT stable cells were seeded at 60,000 cells/well in 50% growth media/50% CO2 independent medium supplemented with 10% FBS and 1× Endurazine substrate. […] A dose–response curve was generated by performing 3-fold dilutions of each compound including a DMSO-only control in growth media. For live cell kinetic degradation assays, diluted compounds were added to CK1α and β-catenin plates and placed in a GloMax Discover (Promega, Cat. #GM3000) preheated to 37 °C or added to IKZF1 plates and placed in a CLARIOstar Plus (BMG LABTECH) preheated to 37 °C.
Relative protein level was determined based on normalization to the DMSO control and reported at Fractional RLUs. Degradation rate and degradation maximums were calculated from Fractional RLUs as previously described[38] using GraphPad Prism software. β-catenin stabilization time of onset for each concentration curve was calculated in GraphPad Prism by fitting an unconstrained plateau followed by one phase association model using the equation below (Y = IF(X < X0, Y0,Y0+(Plateau−Y0)*(1−exp(−K*(X−X0))))). The parameter, X0 was used as time of onset for each compound concentration.

[1] = SI_Fig 4c, DMSO 10.2, 11.1, 11.2

CK1a Degradation Rate Constant (CK1α; 0.111 uM)	CK1a Degradation Rate Constant (CK1α; 0.333 uM)	CK1a Degradation Rate Constant (CK1α; 1 uM)	CK1a Degradation Rate Constant (CK1α; 3 uM)	CK1a Degradation Rate Constant (CK1α; 10 uM)	Dmax at 0.111 µM (CK1α)	Dmax at 0.333 µM (CK1α)	Dmax at 1 µM (CK1α)	Dmax at 3 µM (CK1α)	Dmax at 10 µM (CK1α; replicates)	CK1α degradation depth (HiBiT) (CK1α; HEK293)	DC50 (CK1α)	SMILES	Effect on viability of CRBN−/− cells (annexin-V) (CRBN−/− MOLM-13 cells)	Late apoptosis, flow cytometry (CRBN−/− MOLM-13 cells; SI_Fig 4b, DMSO 3.1, 3.5, 3.3)	Early apoptosis, flow cytometry (CRBN−/− MOLM-13 cells; SI_Fig 4b, DMSO 7.1, 7.5, 7.8)	Late apoptosis, flow cytometry (CRBN−/− MOLM-13 cells; SI_Fig 5b, DMSO 1.3, 1.9, 2)	Early apoptosis, flow cytometry (CRBN−/− MOLM-13 cells; SI_Fig 5b, DMSO 4.6, 5.9, 7.6)	total apoptosis, flow cytometry (CRBN−/− MOLM-13 cells; [1])	total apoptosis, flow cytometry (CRBN−/− MOLM-13 cells; SI_Fig 5c, DMSO 5.8, 7.8, 9.6)	CK1a Percent Maximum Degradation (CK1α; 0.111 uM)	also measured
0.8978 λ/hour	1.129 λ/hour	1.27 λ/hour	1.321 λ/hour	1.331 λ/hour	64.3%	75.2%	79.8%	80.9%	81.6%	near-complete degradation	35 nM	O=C1CCC(N2Cc3c(CNC(=O)c4ccc(F)cc4)cccc3C2=O)C(=O)N1 (stereo not drawn) [SJ7095]	no effect on the viability	2.7 and 3 and 3.2	6.9 and 8.1 and 7	1.7 and 2.1 and 1.9	6.5 and 6.7 and 7.2	9.6 and 11.1 and 10.2	8.2 and 8.8 and 9.1	64.66% and 62.79% and 62.08%	CK1a Percent Maximum Degradation (CK1α; 0.333 uM): 74.90% and 74.15% and 73.38%; CK1a Percent Maximum Degradation (CK1α; 1 uM): 79.97% and 79.25% and 79.09%; CK1a Percent Maximum Degradation (CK1α; 3 uM): 81.84% and 80.21% and 81.34%; CK1a Percent Maximum Degradation (CK1α; 10 uM, replicates): 81.24% and 82.05% and 83.80%
1.349 λ/hour	1.489 λ/hour	1.645 λ/hour	1.768 λ/hour	1.807 λ/hour	85.1%	88.2%	87.9%	87.3%	89%	near-complete degradation	10 nM	Cc1cccc(C(=O)Nc2ccc3c(c2)CN(C2CCC(=O)NC2=O)C3=O)c1 (stereo not drawn) [SJ0040]	no effect on the viability	3.1 and 2.5 and 2.8	7.6 and 5.6 and 6	2 and 1.5 and 1.3	5.5 and 5.1 and 4.5	10.6 and 8.1 and 8.8	7.5 and 6.5 and 5.9		CK1a Percent Maximum Degradation (CK1α; 0.111 uM, listed as SJ10040): 87.09% and 81.49% and 82.97%; CK1a Percent Maximum Degradation (CK1α; 0.333 uM, listed as SJ10040): 81.30% and 83.99% and 85.23%; CK1a Percent Maximum Degradation (CK1α; 1 uM, listed as SJ10040): 85.32% and 82.59% and 87.28%; CK1a Percent Maximum Degradation (CK1α; 3 uM, listed as SJ10040): 84.24% and 83.34% and 82.73%; CK1a Percent Maximum Degradation (CK1α; 10 uM, replicates, listed as SJ10040): 89.47% and 88.18% and 86.50%

SMILES	CK1a Degradation Rate Constant (CK1α; 0.111 uM)	CK1a Degradation Rate Constant (CK1α; 0.333 uM)	CK1a Degradation Rate Constant (CK1α; 1 uM)	CK1a Degradation Rate Constant (CK1α; 3 uM)	CK1a Degradation Rate Constant (CK1α; 10 uM)	Dmax at 0.111 µM (CK1α)	Dmax at 0.333 µM (CK1α)	Dmax at 1 µM (CK1α)	Dmax at 3 µM (CK1α)	Dmax at 10 µM (CK1α; replicates)	CK1α degradation depth (HiBiT) (CK1α; HEK293)	DC50 (CK1α)	Effect on viability of CRBN−/− cells (annexin-V) (CRBN−/− MOLM-13 cells)	Late apoptosis, flow cytometry (CRBN−/− MOLM-13 cells; SI_Fig 4b, DMSO 3.1, 3.5, 3.3)	Early apoptosis, flow cytometry (CRBN−/− MOLM-13 cells; SI_Fig 4b, DMSO 7.1, 7.5, 7.8)	Late apoptosis, flow cytometry (CRBN−/− MOLM-13 cells; SI_Fig 5b, DMSO 1.3, 1.9, 2)	Early apoptosis, flow cytometry (CRBN−/− MOLM-13 cells; SI_Fig 5b, DMSO 4.6, 5.9, 7.6)	total apoptosis, flow cytometry (CRBN−/− MOLM-13 cells; [1])	total apoptosis, flow cytometry (CRBN−/− MOLM-13 cells; SI_Fig 5c, DMSO 5.8, 7.8, 9.6)	CK1a Percent Maximum Degradation (CK1α; 0.111 uM)	also measured
O=C1CCC(N2Cc3cc(Nc4noc5ccccc45)ccc3C2=O)C(=O)N1 (stereo not drawn) [SJ3149]	2.872 λ/hour	3.25 λ/hour	3.334 λ/hour	3.448 λ/hour	3.507 λ/hour	90.6%	91.9%	92.6%	92.7%	95.4%	near-complete degradation	6 nM	no effect on the viability	2.9 and 2.8 and 2.6	8.1 and 7.5 and 5.1	2.1 and 1.7 and 2.2	6.7 and 6.2 and 6.6	10.9 and 10.4 and 7.6	8.8 and 7.9 and 8.7	90.93% and 90.25% and 91.10%	CK1a Percent Maximum Degradation (CK1α; 0.333 uM): 91.59% and 92.14% and 92.11%; CK1a Percent Maximum Degradation (CK1α; 1 uM): 92.68% and 92.87% and 92.05%; CK1a Percent Maximum Degradation (CK1α; 3 uM): 93.01% and 93.23% and 92.96%; CK1a Percent Maximum Degradation (CK1α; 10 uM, replicates): 95.39% and 95.59% and 95.66%; CK1α degradation rate relative to SJ0040 (CK1α; HEK293): ~2 fold; CK1α degradation rate relative to lenalidomide (CK1α; HEK293): ~10 fold; CK1α degradation within the first 30 min (CK1α; at most concentrations): > 50%
